The results in this text go back to patent US11447534B2, “Peptide complex with immunodulatory and anti-inflammatory function” (NATIONAL INSTITUTE OF IMMUNOLOGY, priority 2018, dated 2022).

For data set [1], the system named is carrageenan induced paw edema. Put plainly: Carrageenan induced paw inflammation in mice. The class given is in vivo, mouse. The method, then: The effect of A-O complex was tested under in vivo conditions. Carrageenan, an inflammation inducing agent was injected into the hind foot pad of mouse to induce acute inflammation. The edema attains peak at around 3 hours post carrageenan challenge. This is a convenient model to assess the anti-inflammatory potency of test drugs to reduce or prevent the development of swelling. The protocol followed herein is as per Morris (2003) [Morris C J, 2003, Carrageenan induced paw edema in rat and mouse. In: Winyard P. G., Willoughby D. A. (eds) Inflammation Protocols. Methods in Molecular Biology, Vol 225. Humana Press. Pp 115-121].
Preparation of carrageenan: To prepare 0.5% of carrageenan solution, 50 mg of lamda-carrageenan ([…], Sigma Chemical Co., St. Louis, Mo., USA) was slowly added onto a small beaker containing 10 ml of normal saline. The powder was allowed to swell for some time and then slightly heated (not boiled) to dissolve the carrageenan. The solution was stirred during the heating. Once dissolved, the solution was cooled and aliquoted and stored at 4 degree Celsius.
Method: For experiment, the mice were acclimatized in cages under standard light and temperature settings with access to food and water ad libitum. Mice were acclimatized for 1 week in respective cages to minimize stress. At the day of experiment, mice were placed in a temporary animal restraint and 50 microlitre of carrageenan solution was administered by intraplantar injection to the right hind paw of each mouse. The left paw served as control and was administered 50 microlitre of normal saline.
To determine the efficacy of A-O complex different concentrations of complex viz. 5, 20 and 50 microgram per 100 g body weight of mice were administered intraperitoneally 1 hour before carrageenan challenge. Ibuprofen (100 mg/kg, Sigma Chemical Co., St. Louis, Mo., USA) served as positive control for the experiment. Paw size was measured by wrapping a piece of cotton thread round the paw of each […] and recording the length of the thread, the paw circumference, by use of a metric ruler. Paws were measured immediately before and at specified time points after carrageenan injection. Inhibitory activity was calculated at 1-5 h after carrageenan injection with the following formula: % Inhibition=[(Ct−C0)control−(Ct−C0)treated]/(Ct−C0)control×100, where Ct is paw size after carrageenan injection and C0 is paw size before carrageenan injection.

Another data set relates to CD36 scavenger receptor. Put plainly: Flow cytometry of cell surface CD36 in macrophages. The class given is cell-based, murine. The settings on record: 1 hour exposure, FACS. The protocol: To determine the immunomodulatory effect of A-O complex, serum starved macrophages were exposed to the complex. Macrophages (1×10^6 cells) were serum starved for 30 min after which cells were exposed to A-O complex. After 1 hour, cells were washed with 1×PBS (pH 7.4) and harvested using cell dissociation solution. Then the cells were suspended in ice cold staining buffer (100 μl) and centrifuged at 1000 rpm for 5 min at 4° C. The cells were resuspended in 100 μl ice cold staining buffer for 10 min at 2-8° C. and pellet resuspended in 50 μl staining media. To this 2 μl of Fc block or anti-mouse CD16/CD32 was added for 10 mins and washed with staining buffer. The cells were resuspended in 50 μl of staining buffer and incubated with fluorescent-tagged CD36 antibody (e-biosciences) for 25-30 min on ice. The excess stain was removed by washing and pelleting down using staining buffer thrice by spinning and removal of staining buffer. The cell suspension was fixed 1:1 ratio (staining buffer:fixative) and analysed within 48 h in ARIA3 DIVA software version 6.1. Further, expression of MHC-II, and CD-36, was also determined in the microglial cells via qPCR. […] Following amplification, fold changes in gene expression versus β-actin (reference) analysis was determined using the 2^ΔΔCT(Livak) method.
In general terms: Flow cytometry measures light scatter and fluorescence of single cells or particles in a stream.

Another data set deals with macrophages. Nature of the data set: Uptake of fluorescent CD36 ligands by macrophages (FACS). The settings on record: macrophages pre-treated half an hour, ligand 1 hour. It counts as cell-based, murine. The method, then:
Briefly, 50 μl of 100 μM Abeta was pH adjusted to pH 9 with 5 microlitre of 1 M NaHCO3, followed by addition of 4 microlitre of the H2O solubilized reactive dye. Incubation at room temperature (˜22° C.) was performed for 15 min followed by immediate addition of 55 microlitre of the labeling reaction mixture onto a spin column packed with a 425 microlitre slurry of Biogel P-6 resin for removal of unincorporated dye. The resulting eluent (pH 7.4) was stored for up to 2 days at 4° C. or used immediately for cellular uptake experiments. Both ligands were exposed after pre-treatment of cells with A-O complex for half an hour. The ligands were exposed to cell cultures for 1 hour after which cells were either quenched with trypan blue (0.2%) or given acid wash.

A further data set relates to RAW264.7 macrophages. Nature of the data set: Lactate dehydrogenase (LDH) assay in macrophages. It counts as cell-based, murine. The method, then: Effect of Abeta-Glu-OC (3 ng) mixture on macrophage integrity: To determine whether the mixture produced any toxicity lactate dehydrogenase (LDH) assay was performed. Briefly, the cells were incubated with the mixture under serum starved conditions for 1 hour followed by LDH assay. LDH was assayed using In vitro toxicology assay kit from Sigma-Aldrich, St. Louis, Mo., USA (cat. no.-TOX7) as per the manufacturer's directions. LDH assay substrate solution, LDH assay dye solution and 1×LDH assay cofactor were provided with the kit. […] To this LDH assay mixture was added and incubated at room temperature in the dark for 20-30 min. The reaction was terminated by the addition of 1/10 volume of 1N HCl. Absorption was taken 490 nm with the help of in a Tecan Microplate reader, Switzerland with Magellan™ software.

The test system of data set [2] is iNOS (inducible nitric oxide synthase). Nature of the data set: iNOS Western blot and Griess nitrite assay in ConA activated macrophages. The class given is cell-based, murine. The settings on record: ConA induced. The protocol:
To determine the anti-inflammatory potential of A-O complex, protein level of iNOS (inducible nitric oxide synthase) in cell lysates and nitrite level in cell culture supernatants were evaluated by Western blot and Griess assay respectively. iNOS antibody used was #2982 from Cell Signaling Technology. For determination of nitrite cell culture media and Griess reagent (5% phosphoric acid containing 0.1% NEDD, 1% sulfanilamide) were mixed and incubated in dark for 10 min at room temperature. The absorbance of the violet colored product and blank (cell culture media) was measured at 540 nm. The concentration of nitrite in the sample was determined from a sodium nitrite (NaNO2) standard curve.
On the technique in general: A western blot detects proteins with antibodies after separation by electrophoresis.

As for “A-O complex: peptide complex of 100 μM Abeta1-42 (SEQ ID NO: 1) and 3 ng Glu-OC (SEQ ID NO: 2), incubated at 37° C. for 4 hours”, the “reduction in paw edema” value in data set [1] (5 microgram per 100 g body weight i.p. 1 hour before carrageenan, first value (1 hour)) is 25%; in data set [1] (5 microgram per 100 g body weight i.p., second value (3rd hour)), 48%; in data set [1] (5 microgram per 100 g body weight i.p., third value (5th hour)) it was 58%; in data set [1] (20 microgram per 100 g body weight i.p., first value (1 hour)), 30%; in data set [1] (20 microgram per 100 g body weight i.p., second value (3rd hour)), 60%; in data set [1] (20 microgram per 100 g body weight i.p., third value (5th hour)), 65%. The “reduction in paw edema” value worked out at 30% in data set [1] (50 microgram per 100 g body weight i.p., first value (1 hour)); 57% in data set [1] (50 microgram per 100 g body weight i.p., second value (3rd hour)); 65% in data set [1] (50 microgram per 100 g body weight i.p., third value (5th hour)). In addition, in the data set with CD36 scavenger receptor, the “cell surface protein expression of CD36 receptor” value was “increased cell surface protein expression”. Besides, the “uptake of mutant Abeta42 (mutant Aβ)” value with macrophages is recorded as “facilitates the uptake”. The “uptake of oxidized-lipoprotein (oxLDL)” value in the data set with macrophages is “facilitates the uptake”. In addition, in the data set on RAW264.7 macrophages, the “intracellular LDH” value was “did not show any rise in intracellular LDH”. Also, the iNOS protein expression result in data set [2] (macrophage cell lysates, Western blot) is listed as “reduces the iNOS expression”. The “nitrite level in cell culture supernatants” value in data set [2] (macrophage cultures, Griess assay) is given as “reduction in the ConA induced nitrite levels”.
